Measurements reported in patent US20050255118A1, “Methods and composition for treating tumors and metastatic disease” (priority 2004, published 2005).
Where two headings read alike, the source gives them in different places.

Experiments:
[1] = mouse, in vivo
Source text: (§4) In-life experimental work commenced on Day 0 and was terminated on Day 80. Five-to-six-weeks-old, female SCID mice were purchased from Taconic Farms, Inc. (Germantown, N.Y.) and acclimated in the laboratories one week prior to experimentation. The animals were housed in a pathogen-free barrier facility in micro-isolator cages, with five animals per cage in a 12-hour light/dark cycle. The animals received filtered Birmingham municipal water and sterile rodent food ad libitum. Mice were fed sterilizable rodent diet (Harlan-Teklad TD8656). Cages were changed twice weekly. The animals were observed daily and clinical signs were noted.
(§5) Animals were randomly divided into six groups of 20 animals each and one group of 30 animals. Two groups (Groups 1 and 5) were treated with Saline Solution 0.9% (saline). Animals in Groups 2, 6, and 7 were treated with natalizumab. Animals in Group 3 were treated with IgG4 (isotype control). Animals in Group 4 were treated with Taxol® (positive control). Treatments with saline, natalizumab, and IgG4 (Groups 1, 2, 3, 5, and 6) were administered IP on Days 14, 17, 21, 24, 28, 31, 35, 38, 42, and 45 (Q3D×2 for five weeks, Friday-Monday schedule). Treatment with natalizumab in Group 7 (a group of 30 mice) was administered on Days 14, 17, 21, 24, 28, 31, 35, and 38 (Q3D×2 for four weeks). On Day 14 natalizumab was administered at a dosage of 10 mg/kg, followed by further treatments with a dosage of 5 mg/kg/dose. […]
(§6) The animals were weighed and the subcutaneous (SC) tumors were measured on the days when treatments were administered starting on Day 14 with an exception of two measurements which were done one day before the injection (on Days 24 and 41). […]
(§7) The number of non-specific deaths, number of partial and complete tumor regressions, number of tumor-free survivors, and the individual animal's time to reach the evaluation size (time to reach four tumor mass doublings) were determined. […] Mean body weights and standard deviations were calculated for each group on each day of data collection (values are presented in Tables 8-9 through 8-15).

[2] = tested on: human MOLT-4 acute lymphoblastic leukemia xenografts; assay: Growth of subcutaneously-implanted human MOLT-4 xenografts in SCID mice; assay type: in vivo, female SCID mice; conditions: for Effect on growth of SC-implanted MOLT-4 xenografts (primary tumor): treatment after establishment of tumor
Method: Mice were fed sterilizable rodent diet (Harlan-Teklad TD8656). Cages were changed twice weekly.
Thirty-to-forty milligram fragments of MOLT-4 human leukemia were implanted in mice near the right auxiliary area using a 12-gauge trocar needle and allowed to grow. The day of tumor fragment implantation was Day 0 of the experiment. Tumors were allowed to reach 75-144 mg in weight (75-144 mm3 in size) before the start of the treatments. A sufficient number of mice were implanted so that tumors in a weight range as narrow as possible were selected for the trial on the day of treatment initiation (Day 14 after tumor implantation). Those animals selected with tumors in the proper size range were randomized into treatment groups. The mean tumor weights on the first day of treatment were ranging from 84 or 96 mg; median tumor weights were 75 or 88 mg on Day 14.
Natalizumab (a 20-mg/mL solution, Gensia Sicor Pharmaceuticals Inc., Lot Nos. F23014 and G23004) and a diluent (Placebo for Tysabri®, Gensia Sicor Pharmaceuticals Inc., Lot No. F85002) were received from Biogen Idec Inc. and were stored at +2-8° C. upon receipt. Vials with a 0.97-mg/mL solution of human immunoglobulin (IgG4) were supplied by Sigma-Aldrich (St. Louis, Mo., Lot No. 122K9159) and were stored at −84° C. upon receipt. A clinical formulation of Taxol® (placlitaxel) (6.0 mg/mL in 50% cremophor-EL/50% ethanol, Bristol-Myers Squibb Company, Princeton, N.J.; Lot No. 2L57296) was purchased and refrigerated upon receipt. Saline (Saline Solution 0.9%, for animal use only) was purchased from Phoenix Pharmaceutical, Inc. (St. Joseph, Mo., Lot Nos. 262053F, 206205F, 208281F) and stored at room temperature. A new bottle of saline was used on each day of formulation.
On Day 14, a 20-mg/mL solution of natalizumab was diluted with Placebo for Tysabri® to 1.0 mg/mL. On subsequent injection days, a 0.5-mg/mL solution of natalizumab was formulated by diluting a 20-mg/mL stock solution with Placebo for Tysabri®. Care was taken not to shake the vials with natalizumab; the vials were inverted to mix. A new vial of natalizumab and Placebo for Tysabri® were used on each day of formulation. On Day 14, a supplied 0.97-mg/mL stock solution of IgG4 was thawed and injected into mice. On subsequent injection days, a 0.5-mg/mL solution of IgG4 was prepared by diluting a 0.97-mg/mL stock solution with Saline Solution 0.9%. A new vial with IgG4 was used on each day of formulation. An aliquot of a commercially formulated 6-mg/mL solution of Taxol® in 50% cremophor-EL/50% ethanol was diluted on each day of injection with Saline Solution 0.9% to make a 1.5-mg/mL solution in 12.5% cremophor-EL/12.5% ethanol/75% saline. All dosing solutions were injected within 2 to 3 hours of formulation.
Primary tumors of animals in Groups 5 and 6 were surgically excised on Day 28, one day after the median tumor weight in Group S reached 466 mg. Administration of anesthesia and surgery/post-surgery recovery procedures were conducted following approved standard laboratory methods. Briefly, each animal was anesthetized and the incision site was prepared with an antiseptic solution. An incision along the periphery of one side of the tumor (no more than 3-4 mm longer than the diameter of the tumor) was made, the skin was reflected and the tumor was everted through the incision. Tumor was dissected away from the skin and muscle. The incision was closed with a 4.0-mm wound clip. Each excised tumor was cut in half, with one half of the tumor frozen in O.C.T. compound and the second half of the tumor preserved in 10% buffered formalin. The site of the resection was monitored for tumor re-growth twice a week and when a new solid tumor was formed, its dimensions were recorded.
Animals No. 1-10 in Groups 1-4 were euthanized on Day 47 after tumor implantation (16 May 2003); Animals No. 11-20 in Groups 1-4 were euthanized on Day 48 (17 May 2003). […]

[3] = tested on: human acute lymphoblastic leukemia xenografts; assay: Necropsy and histopathologic evaluation of xenograft-bearing SCID mice; design: species or system female SCID mice; conditions: mouse, in vivo
Method: Animals No. 1-10 in Groups 1-4 were euthanized on Day 47 after tumor implantation (16 May 2003); Animals No. 11-20 in Groups 1-4 were euthanized on Day 48 (17 May 2003). All surviving animals in Groups 5 and 6 (except for Animal No. 12 in Group 5 and Animal No. 8 in Group 6, for explanations see below) were euthanized on Day 80 after tumor implantation […]. Animal No. 12 in Group 5 was sacrificed on Day 73 due to excessive tumor weight (>4,000 mg). Animal No. 8 in Group 6 was sacrificed on Day 73 due to tumor ulceration. Five animals in Group 7 were euthanized on Days 14, 21, 28, 35, and ten animals were euthanized on Day 38. Carcasses of all animals alive on Days 47, 48, and 80 were submitted to the Safety Assessment Department of Southern Research Institute for necropsy followed by complete histopathological evaluation. Animals in Group 7 were excluded from necropsy and complete histopathological evaluation. For the animals in Groups 1-6, tumor implantation (subcutaneous) took place on Day 0. Treatment was initiated on Day 14, and treatment was terminated on Day 45. Primary tumor excision occurred on Day 28 post-implantation in Groups 5 and 6. The animals were sacrificed on Day 80. Animals in the non-excision group were sacrificed at days 47-48.
Each tumor weighing more than 100 mg was cut in half and one half of the each tumor was frozen in O.C.T. compound using a dry ice/ethanol slush, and stored at −84° C. Tumors weighing less than 100 mg (tumors of Animals No. 1, 3, 7, 9, 11, 12, 14-18, and 20 in Group 4) were frozen in O.C.T. compound in toto. Tumor of Animals No. 2, 4, 5, 6, 8, 13, and 19 in Group 4, which weighed less than 100 mg, were preserved in 10% buffered formalin in toto. After the completion of the experiment all tumor samples frozen in O.C.T. compound (a total of 145 tumor samples) were shipped to Sierra Biomedical, Division of Charles River Laboratories, to be examined by immunohistochemistry to verify that MOLT-4 was expressing VLA-4 in vivo and thus was a valid tumor model for this study. […]

[4] = tested on: UM-UC-3 cell line; assay: 3H-thymidine incorporation (tritiated thymidine uptake) proliferation assay, UM-UC-3; assay type: cell-based; conditions: 1, 2, 3, 4 and 5 days of exposure, eight concentrations (0.001-100 mg/mL)
Method: (§1) In order to assess the potential of natalizumab to induce or inhibit proliferation of transformed cells and clonal expansion possibly leading to neoplasia, experiments were performed to determine the ability of natalizumab to stimulate growth of malignant cells expressing the receptor in vitro, and studies were conducted in animal tumor models.
(§2) The evaluation of positive or negative effects on proliferation of the tumor cell lines was performed using 3H-thymidine incorporation assays. Evaluation of the inhibition or potentiation of human tumor cell growth and/or metastasis was determined using a tumor xenograft nude/SCID mouse model. Thirty-two tumor cell lines were screened. Of the thirty-two tumor cell lines, twelve were colorectal carcinoma, colorectal adenocarcinoma, colon adenocarcinoma, or colon carcinoma cell lines; seven were melanomas or amelanotic melanomas; six were urinary bladder transitional cell carcinomas or urinary bladder carcinomas; three were leukemias; two were lymphomas; and two were prostate carcinomas.
(§3) An adhesion assay for VCAM-1 binding was also performed. Seven of the eleven cell lines evaluated were positive. […] AS283, HT-29, MOLT-4, and UM-UC-3 cell lines were treated with Tysabri® (natalizumab). Tritiated thymidine uptake was measured.

[5] = Tolerability (deaths, body weight) in MOLT-4 xenograft-bearing SCID mice
Source text: as §4, §5, §6, §7

[6] = tested on: HT-29 cell line; assay: 3H-thymidine incorporation (tritiated thymidine uptake) proliferation assay, HT-29; assay type: cell-based; conditions: 1, 2, 3, 4 and 5 days of exposure, eight concentrations (0.001-100 mg/mL)
Method: as §1, §2, §3

[7] = tested on: MOLT-4 cell line; assay: 3H-thymidine incorporation (tritiated thymidine uptake) proliferation assay, MOLT-4; assay type: cell-based, human; conditions: 1, 2, 3, 4 and 5 days of exposure, eight concentrations (0.001-100 mg/mL)
Method: as §1, §2, §3

[8] = tested on: tumor cell lines (nine evaluated); assay: Preliminary cell proliferation assay on nine tumor cell lines; assay type: cell-based; conditions: all nine of the nine cell lines evaluated
Method: as §2, §3

[9] = tested on: AS283 cell line; assay: 3H-thymidine incorporation (tritiated thymidine uptake) proliferation assay, AS283; assay type: cell-based; conditions: 1, 2, 3, 4 and 5 days of exposure, eight concentrations (0.001-100 mg/mL)
Method: as §1, §2, §3

[10] = tested on: human MOLT-4 acute lymphoblastic leukemia xenografts; assay: Growth of subcutaneously-implanted human MOLT-4 xenografts in SCID mice; assay type: in vivo, female SCID mice; conditions: treatment initiated Day -7

## CC(=O)O[C@H]1C(=O)[C@@]2(C)[C@H]([C@H](OC(=O)c3ccccc3)[C@]3(O)C[C@H](OC(=O)[C@H](O)[C@@H](NC(=O)c4ccccc4)c4ccccc4)C(C)=C1C3(C)C)[C@]1(OC(C)=O)CO[C@@H]1C[C@@H]2O [Taxol, placlitaxel, reference compound]
[1]
  Tolerability of administration: well tolerated without deaths or sustained body weight loss
[2]; no excision (Group 4)
  Measurable tumors that doubled their mass once over the course of the experiment: three out of eight
[2]; no excision, 15 mg/kg/dose IV Q1Dx5 from Day 14
  Animals with no measurable tumor at termination of the experiment: Twelve out of twenty
[2]; no excision
  Effect on growth of SC-implanted MOLT-4 xenografts (primary tumor): very effective in the inhibition
[3]
  Gross and microscopic lesions, relation to treatment: spontaneous or incidental and unrelated

## natalizumab: a humanized antibody against VLA-4 as described in U.S. Pat. Nos. 5,840,299 and 6,033,665
[2]; Day 47, treatment started Day 14 on established tumor, no excision (Groups 2-4)
  Median tumor weight: 1240 mg
[2]; Day 80, primary tumor excised Day 28 (Group 6)
  Median tumor weight (re-grown tumor): 1006 mg
[2]; Group 6, Day 80
  Animals staying tumor-free on day of study termination: two
[2]; Group 6, excision Day 28
  Animals whose tumor re-grew at the site of the primary tumor following excision: seventeen out of nineteen
[2]; Group 6 vs Group 5, excision Day 28
  Effect on re-growth of tumor at the site of excision of the primary tumor: re-grew at a slower rate
[2]; no excision (Groups 2 and 3)
  Tumors growing / animals with tumor at termination of the experiment: All twenty tumors grew
[2]; primary tumor excised Day 28 (Group 6), not reached
  Time for median tumor to reach four tumor mass doublings: > 66.0 days
[2]; no excision
  Effect on growth of SC-implanted MOLT-4 xenografts (primary tumor): not inhibited
[2]; treatment started Day 14 on established tumor, no excision (Groups 2-4)
  Time for median tumor to reach four tumor mass doublings: 33.5 days
[4]
  Tritiated thymidine uptake: cytotoxic or proliferative effect: no evidence of a cytotoxic or proliferative effect
[5]; mouse, in vivo
  Effect on animal health (body weights over the treatment period): did not adversely affect animal health
[5]; non-excision groups, natalizumab and IgG4 IP Days 14-45, Taxol IV Q1Dx5
  Tolerability of administration: well tolerated without deaths
[6]
  Tritiated thymidine uptake: cytotoxic or proliferative effect: no evidence of a cytotoxic or proliferative effect
[3]
  Exacerbation of growth or metastasis of the xenografts (histopathology): no evidence of exacerbation of growth or metastasis
  Gross and microscopic lesions, relation to treatment: spontaneous or incidental and unrelated
[7]
  Tritiated thymidine uptake: cytotoxic or proliferative effect: no evidence of a cytotoxic or proliferative effect
[8]
  Preliminary cell proliferation assay: cytotoxic or proliferative effect: no cytotoxic or proliferative effect
[9]
  Tritiated thymidine uptake: cytotoxic or proliferative effect: no evidence of a cytotoxic or proliferative effect
[10]
  Effect on tumor growth, treatment initiated prior to tumor implantation: significant decrease in tumor growth
